Article PMC10315211 (Molecular microbiology, 2023)

Biological target: CpdAEc (N-His-CpdAEc) (Escherichia coli, UniProt P0AEW4)
Type: biochemical
Conditions: 50 mM Tris-HCl pH 8.0, 0.14 M NaCl, 2 mM MgCl2, room temperature

CpdAEc (N-His-CpdAEc), sequence (P0AEW4 whole entry): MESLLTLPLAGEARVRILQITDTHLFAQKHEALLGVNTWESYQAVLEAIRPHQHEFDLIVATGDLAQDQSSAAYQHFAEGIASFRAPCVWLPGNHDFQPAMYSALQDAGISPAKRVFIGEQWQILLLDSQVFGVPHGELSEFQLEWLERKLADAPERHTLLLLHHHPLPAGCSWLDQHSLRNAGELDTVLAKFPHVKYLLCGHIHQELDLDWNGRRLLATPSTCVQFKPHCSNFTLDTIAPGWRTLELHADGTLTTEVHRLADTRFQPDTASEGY

C[N+](C)(C)CCOP(=O)([O-])OC[C@H](O)CO [glycerophosphocholine]
choline oxidase / HRP coupled Amplex Red fluorometric assay: both Rv0805 and CpdAEc produced choline and Gly3P from glycerophosphocholine (GPC)
